From patent US10487078B2, “Compositions and methods of targeting mutant K-RAS” (NantBio, Inc., priority 2015, dated 2019)

Key:
[1] = system: Akt phosphorylation in Panc1 (G12D) cells; assay: In-Cell Western Akt phosphorylation; assay type: cell-based; conditions: EC50, one hour treatment; read-out: In-Cell Western Akt phosporylation Panc1 (G12D)
Protocol: (§1) In-cell phosphorylation assays for Erk and Akt were performed on various of the compounds and exemplary results are shown in Table 3 below using […] and Panc10.05 cell lines for G12D K-ras mutants.
(§2) Cells are seeded in complete medium into black sided, clear-bottom 384-well microplates at 3000 cells/[…]/well. Plates are returned to 37° C. CO2 incubator for 18 hr. Drug is made as 200× in DMSO and diluted into medium to 10×. To each well is added 4 ul 10× test article or controls, and plates are returned to the incubator. Final assay DMSO concentration is 0.5%. After one hour, cells are fixed in formaldehyde, rinsed & permeabilized with triton X-100, and blocked with BSA/Goat serum blocking solution. Primary phospho-Akt and phospho-ERK antibodies are added and plates are incubated overnight at 4° C. Plates are rinsed with Tween-20 wash buffer and secondary antibody (Goat anti-rabbit, Thermofisher) is added. After 2 hours, plates are rinsed in Tween-20 wash buffer, and then PBS. Plates are imaged on the Celigo (Nexcelom) and cellular fluorescence is quantitated. Full inhibition of phospho-Akt is achieved with 1 uM BEZ235 (Sellekchem), while full inhibition of phospho-ERK is achieved with 1 uM MEK Inhibitor II Calbiochem). EC50 values are calculated using Graphpad Prism.

[2] = system: Akt phosphorylation in Panc10.05 (G12D) cells; assay: In-Cell Western Akt phosphorylation; assay type: cell-based; conditions: EC50, one hour treatment; read-out: In-Cell Western Akt phosporylation Panc10.05 (G12D)
Protocol: as §1, §2

K-ras G12D (GDP) = K-ras G12D (GDP) (Homo sapiens, UniProt P01116, G12D); assay: SPR assay (surface plasmon resonance); assay type: binding; conditions: 25° C., 8% DMSO
Protocol: (§3) Selected compounds were also tested for selective binding to wild type and mutant forms of K-ras in the active and non-active state using surface plasmon resonance, and exemplary results are shown in Table 4.
(§4) The running buffer in all surface plasmon resonance experiments was 10 mM HEPES pH 7.4, 150 mM NaCl, 0.1% (v/v) Tween-20, 1 mM MgCl2, 8% DMSO. Experiments were carried out on the SensiQ Pioneer optical biosensor. The flow rate was set at 50 μL/min and the temperature was 25° C. kRAS protein was immobilized to the Nickel-NTA charged surface of the SensiQ HisCap chip (sensiqtech.com) giving a yield of 4000 RU. Small molecules were prepared in 100% DMSO and further diluted to 8% DMSO in running buffer. The small molecules were injected using the Taylor diffusion gradient injection mode (OneStep®, see e.g., Evaluation of Taylor dispersion injections: Determining kinetic/affinity interaction constants and diffusion coefficients in label-free biosensing, John G. Quinn, Analytical Biochemistry (2011)). Buffer blanks were injected for double referencing purposes. Data processing and model fitting were performed using Qdat.

K-ras G12D (GTP) = K-ras G12D (GTP) (Homo sapiens, UniProt P01116, G12D); assay: SPR assay (surface plasmon resonance); assay type: binding; conditions: 25° C., 8% DMSO
Protocol: as §3, §4

K-ras G12V (GTP) = K-ras G12V (GTP) (Homo sapiens, UniProt P01116, G12V); assay: SPR assay (surface plasmon resonance); assay type: binding; conditions: 25° C., 8% DMSO
Protocol: as §3, §4

K-ras wild-type (GDP) = K-ras wild-type (GDP) (Homo sapiens, UniProt P01116); assay: SPR assay (surface plasmon resonance); assay type: binding; conditions: 25° C., 8% DMSO
Protocol: as §3, §4

K-ras wild-type (GTP) = K-ras wild-type (GTP) (Homo sapiens, UniProt P01116); assay: SPR assay (surface plasmon resonance); assay type: binding; conditions: 25° C., 8% DMSO
Protocol: as §3, §4

[3] = system: pMEK and pErk in Panc10.05 (K-Ras G12D mutant) cells; assay: SDS-PAGE/blot detection of pMEK and pErk (FIG. 3); assay type: cell-based; conditions: serum-starved, 3.1 to 25 μM, 1 hour, then 100 ng/ml EGF 5 minutes
Protocol: The effect of contemplated compounds on cell signaling was tested in wild type and K-ras G12D mutant cells as follows: Cancer cell lines BxPC-3 (K-Ras wild-type), and Panc10.05 (K-Ras G12D mutant) were serum-starved 0/N before treatment with 3.1 to 25 μM of Ras compound A0837 for 1 hour before stimulation with 100 ng/ml EGF for 5 minutes. Cells were washed once in ice-cold PBS, lysed in complete lysis buffer on ice, and processed by SDS-PAGE under reducing conditions for the detection of pMEK and pErk. Membranes were stripped and re-probed for total MEK/Erk.

Compound: Cc1nc(C)c(C(=O)Nc2nc(-c3ccc4[nH]c(=O)[nH]c4c3)cs2)s1 [Compound 4562]
- EC50 [1]: 8 µM
- EC50 [2]: 22 µM
- Kd (K-ras G12D (GDP)): 111 µM
- SPR Assay G12D (GDP) Rmax (K-ras G12D (GDP)): Rmax = 66.0 ± 0.9
- SPR Assay G12D (GTP) Kd (K-ras G12D (GTP)): No binding/fit
- SPR Assay G12V (GTP) Rmax (K-ras G12V (GTP)): Rmax = 300000
- Kd (K-ras G12V (GTP); value in mM): 10 mM
- SPR Assay Wild-type (GDP) Kd (K-ras wild-type (GDP)): No
- SPR Assay Wild-type (GTP) Kd (K-ras wild-type (GTP)): No binding/fit
- Signaling downstream of Ras (pMEK, pErk), mutant cell line (FIG. 3) [3]: inhibited signaling downstream of Ras in the mutant cell line
